ChEMBL document CHEMBL2406906, “1,2,4-Triazole derivatives as transient inactivators of kallikreins involved in skin diseases” (Bioorg Med Chem Lett, 2013)
The source made the active and inactive calls. The rule behind the calls is not given here.

Assays:
[1] = Cytotoxicity against human keratinocytes at 1 to 10 uM after 48 hrs by neutral red uptake assay; type: cell-based; details: keratinocyte
Kallikrein-7 [2] = target: T1, Kallikrein-7 (Homo sapiens, UniProt P49862); assay: Inhibition of human kallikrein 7 measured after 15 mins at pH 8 by fluorescence assay
Target sequence in this assay (P49862 whole entry): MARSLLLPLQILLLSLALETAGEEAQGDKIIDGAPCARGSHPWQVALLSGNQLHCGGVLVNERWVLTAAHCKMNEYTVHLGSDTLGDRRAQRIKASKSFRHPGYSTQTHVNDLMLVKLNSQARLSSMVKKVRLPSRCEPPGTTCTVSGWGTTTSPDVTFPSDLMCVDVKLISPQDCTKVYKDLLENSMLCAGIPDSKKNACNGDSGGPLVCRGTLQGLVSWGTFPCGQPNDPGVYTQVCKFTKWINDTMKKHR

Kallikrein-14 = target: T2, Kallikrein-14 (Homo sapiens, UniProt Q9P0G3); assay: Inhibition of human kallikrein 14 measured after 15 mins at pH 8 by fluorescence assay
T2 sequence (Q9P0G3 whole entry): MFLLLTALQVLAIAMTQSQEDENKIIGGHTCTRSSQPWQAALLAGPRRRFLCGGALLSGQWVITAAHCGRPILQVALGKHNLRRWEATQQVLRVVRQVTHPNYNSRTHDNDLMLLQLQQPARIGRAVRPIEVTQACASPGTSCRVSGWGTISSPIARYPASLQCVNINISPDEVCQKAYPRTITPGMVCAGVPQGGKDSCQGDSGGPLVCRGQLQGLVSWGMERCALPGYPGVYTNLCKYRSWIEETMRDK

Kallikrein-5 [3] = target: T3, Kallikrein-5 (Homo sapiens, UniProt Q9Y337); assay: Inhibition of human kallikrein 5 measured after 15 mins at pH 8 by fluorescence assay
T3 sequence (Q9Y337 whole entry): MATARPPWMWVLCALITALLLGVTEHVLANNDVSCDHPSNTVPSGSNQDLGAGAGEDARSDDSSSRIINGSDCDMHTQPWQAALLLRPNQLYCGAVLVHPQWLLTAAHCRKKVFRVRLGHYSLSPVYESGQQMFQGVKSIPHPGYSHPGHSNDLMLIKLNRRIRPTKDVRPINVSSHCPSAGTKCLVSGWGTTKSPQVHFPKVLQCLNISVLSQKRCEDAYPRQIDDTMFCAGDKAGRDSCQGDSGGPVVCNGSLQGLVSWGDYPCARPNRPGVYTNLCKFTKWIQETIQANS

[4] = target: T4, Suppressor of tumorigenicity 14 protein (Homo sapiens, UniProt Q9Y5Y6); assay: Inhibition of human matriptase measured after 15 mins at pH 8 by fluorescence assay
T4 sequence (Q9Y5Y6 whole entry): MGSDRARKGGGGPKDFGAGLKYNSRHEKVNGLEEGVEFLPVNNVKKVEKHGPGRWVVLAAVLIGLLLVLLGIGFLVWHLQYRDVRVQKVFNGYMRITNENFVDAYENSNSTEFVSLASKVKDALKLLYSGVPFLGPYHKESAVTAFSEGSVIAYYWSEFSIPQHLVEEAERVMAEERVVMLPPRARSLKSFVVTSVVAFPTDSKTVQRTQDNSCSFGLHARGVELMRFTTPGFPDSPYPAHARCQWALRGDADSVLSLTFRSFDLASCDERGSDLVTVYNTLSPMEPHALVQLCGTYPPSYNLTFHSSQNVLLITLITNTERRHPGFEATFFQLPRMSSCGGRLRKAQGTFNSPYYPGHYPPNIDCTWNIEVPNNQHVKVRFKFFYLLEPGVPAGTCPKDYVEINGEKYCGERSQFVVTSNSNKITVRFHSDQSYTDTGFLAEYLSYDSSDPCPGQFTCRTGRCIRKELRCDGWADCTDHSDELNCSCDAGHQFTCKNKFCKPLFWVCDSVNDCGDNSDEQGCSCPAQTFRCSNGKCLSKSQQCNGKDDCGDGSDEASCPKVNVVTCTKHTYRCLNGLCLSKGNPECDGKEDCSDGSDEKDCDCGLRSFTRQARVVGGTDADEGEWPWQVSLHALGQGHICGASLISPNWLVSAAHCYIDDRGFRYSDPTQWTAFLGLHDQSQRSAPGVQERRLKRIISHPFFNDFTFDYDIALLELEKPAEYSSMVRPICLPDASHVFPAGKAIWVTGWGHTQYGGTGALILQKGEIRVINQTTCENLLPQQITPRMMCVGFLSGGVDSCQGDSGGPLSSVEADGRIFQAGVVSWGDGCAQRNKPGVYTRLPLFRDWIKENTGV

[5] = target: T5, Kallikrein-14 (Homo sapiens) (UniProt Q9P0G3); assay: Binding affinity to human kallikrein 14 assessed as half life of deacylated enzyme
T5 sequence (whole entry): T2 sequence (Q9P0G3 whole entry)

[6] = target: T6, Suppressor of tumorigenicity 14 protein (Homo sapiens) (UniProt Q9Y5Y6); assay: Binding affinity to human matriptase assessed as half life of deacylated enzyme
T6 sequence (whole entry): T4 sequence (Q9Y5Y6 whole entry)

Kallikrein-5 [7] = target: T3, Kallikrein-5; assay: Inhibition of human kallikrein 5 measured after 15 mins at pH 8 by double-reciprocal plot analysis
[8] = target: Kallikrein-5 (Homo sapiens) (UniProt Q9Y337); assay: Transient inhibition of human kallikrein 5 assessed as spontaneous reactivation up to 6 hrs
[9] = target: Kallikrein-5 (Homo sapiens) (UniProt Q9Y337); assay: Inhibition of human kallikrein 5 at 296 nM to 1 uM at pH 8 by fluorescence assay; details: TDE = time-dependent effect
Kallikrein-7 [10] = target: T1, Kallikrein-7; details: 296 nM
Target sequence in this assay (P49862 30-253 limits assumed): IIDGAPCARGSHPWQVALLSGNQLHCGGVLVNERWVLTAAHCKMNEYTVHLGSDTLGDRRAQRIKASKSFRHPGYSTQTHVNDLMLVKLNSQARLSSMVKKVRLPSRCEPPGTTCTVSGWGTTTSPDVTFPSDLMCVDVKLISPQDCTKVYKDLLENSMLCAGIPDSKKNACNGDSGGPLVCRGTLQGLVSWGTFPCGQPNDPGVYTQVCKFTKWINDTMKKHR
Description: Inhibition of human kallikrein 7 at 296 nM to 1 uM at pH 8 by fluorescence assay

[11] = target: Kallikrein-5 (Homo sapiens) (UniProt Q9Y337); assay: Inhibition of human kallikrein 5 at 0.5 to 8 uM at pH 8 by fluorescence assay; details: TDE = time-dependent effect
Kallikrein-7 [12] = target: T1, Kallikrein-7; assay: Binding affinity to human kallikrein 7 assessed as deacylation of enzyme relative to control
Target sequence in this assay (P49862 30-253 limits assumed): as above

Kallikrein-7 [13] = target: T1, Kallikrein-7; assay: Inhibition of human kallikrein 7 at 0.5 to 8 uM at pH 8 by fluorescence assay; details: TDE = time-dependent effect
Target sequence in this assay (P49862 30-253 limits assumed): as above

[14] = target: Kallikrein-5 (Homo sapiens) (UniProt Q9Y337); assay: Binding affinity to human kallikrein 5 assessed as deacylation of enzyme relative to control
Kallikrein-7 [15] = target: T1, Kallikrein-7; assay: Binding affinity to human kallikrein 7 assessed as half life of deacylated enzyme
Target sequence in this assay (P49862 30-253 limits assumed): as above

IC50 (Kallikrein-7 [2]; read-out: IC50) [nM] | IC50 (Kallikrein-14; read-out: IC50) [nM] | IC50 (Kallikrein-5 [3]; read-out: IC50) [nM] | IC50 ([4]; read-out: IC50) [nM] | T1/2 [5] [min] | fold change (FC) (Kallikrein-7 [12]) | SMILES | Activity [1] | further results
610 | 3430 | 990 | > 30000 | 5 | – | COc1ccc(C(=O)n2cnnc2N)cc1 | Non-toxic | –
40 | 1290 | 270 | 570 | 5 | – | Cc1ccc(C(=O)n2nc(-c3cccnc3)nc2N)cc1 | Non-toxic | T1/2 [6]: 5 min; Ki (Kallikrein-5 [7]): 4400 nM; inhibition [8]: Active; inhibition [9]: tde; inhibition (Kallikrein-7 [10]): tde
3500 | – | > 30000 | – | – | – | Nc1nc(-c2cccnc2)nn1C(=O)c1ccc(Cl)cc1Cl | – | IC50 (Kallikrein-14): Not Active; IC50 [4]: Not Active
230 | > 30000 | 1300 | > 30000 | – | 0.2 | COc1ccc(C(=O)n2nc(-c3ccccc3)nc2N)cc1OC | – | inhibition [11]: tde; inhibition (Kallikrein-7 [13]): tde; fold change (FC) [14]: 4
220 | > 30000 | 1140 | > 30000 | – | 2 | Nc1nc(-c2cccnc2)nn1C(=O)c1ccc(Cl)cc1 | – | fold change (FC) [14]: 8
– | – | – | – | – | – | C/C(=C\c1ccccc1)C(=O)n1nnc2ccccc21 | – | IC50 (Kallikrein-7 [2]): Not Active; IC50 (Kallikrein-14): Not Active; IC50 (Kallikrein-5 [3]): Not Active; IC50 [4]: Not Active
660 | 970 | 140 | 420 | 5 | 0.2 | CSc1nc(-c2ccc(Cl)cc2)nn1C(=O)c1ccccc1 | Non-toxic | T1/2 [6]: 5 min; T1/2 (Kallikrein-7 [15]): 39 min
